From patent publication US6583146B1, “Thiazolopyrimidine compounds, its production and use” (Takeda Chemical Industries, Ltd., priority 1999, dated 2003) come the findings set out here.

The target in the experiment is T1, human adenosine A3 receptor (Homo sapiens, UniProt P0DMS8).
T1 construct: expressed in transfected cells; membrane fraction used
T1 sequence (P0DMS8 1-318): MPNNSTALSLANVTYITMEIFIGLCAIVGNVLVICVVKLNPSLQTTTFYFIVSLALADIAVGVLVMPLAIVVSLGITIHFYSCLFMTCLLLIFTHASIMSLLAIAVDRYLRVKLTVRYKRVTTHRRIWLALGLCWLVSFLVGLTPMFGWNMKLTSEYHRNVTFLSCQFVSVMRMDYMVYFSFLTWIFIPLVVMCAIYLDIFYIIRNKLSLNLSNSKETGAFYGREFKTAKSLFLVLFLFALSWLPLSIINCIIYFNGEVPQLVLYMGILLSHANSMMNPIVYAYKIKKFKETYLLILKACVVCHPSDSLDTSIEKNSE
Briefly: Binding assays with adenosine A3 receptor ([3H]-NECA displacement, A3AR/CHO cell membranes). As to conditions: [3H]-NECA as ligand; 100 μg/mL membranes of CHO cells expressing human adenosine A3 receptor; 1 hour at room temperature; read-out: IC50 (concentration that inhibits 50% specific binding of [3H]-NECA to the membrane). As to the method: The following procedures in this Example were carried out according to the methods described in Molecular Cloning —Cold Spring Harbor Laboratory (1989) or protocol specified by manufacturers.
Cloning of the human adenosine A3 receptor gene was carried out by the polymerase chain reaction (PCR) from human brain cDNA. Using 1 ng of brain cDNA (Quick-Clone cDNA, TOYOBO, Osaka) as template, PCR was performed in DNA Thermal Cycler 480 (Perkin Elmer) (reaction conditions: 35 cycles of 1 min at 95° C., 1 min at 66° C., and 2 min at 75° C.) by mixing primers (50 pmol each),
5′-[…]-3′ [Sequence No. 1] and 5′-[…]-3′ [Sequence No. 2], which were designed referring to nucleotide sequence of adenosine A3 receptor gene reported by Salvatore et. al., (Proc. Natl. Acad. Sci. U. S. A., 90:10365-10369, 1993) and TaKaRa LA PCR Kit Ver.2 (TaKaRa Shuzo Co. Ltd., Kyoto). The PCR product was electrophoresed and 1.0 kb DNA fragment was recovered. The DNA fragment encoding adenosine A3 receptor was cloned using Original TA Cloning Kit (FUNAKOSHI, Tokyo).
Thus obtained plasmid was digested with Xba I (TaKaRa Shuzo Co. Ltd., Kyoto), blunted with T4 DNA polymerase (TaKaRa Shuzo Co. Ltd., Kyoto) and digested with Sal I (TaKaRa Shuzo Co. Ltd., Kyoto) to obtain adenosine A3 receptor gene fragment. […]

Each structure is given as a SMILES string.

Regarding `COc1ccc(-c2c(-c3ccncc3)sc3nc(=O)cc(N)n23)cc1` [Example Compound 1, 5-Amino-3-(4-methoxyphenyl)-2-(4-pyridyl)-7H-thiazolo[3,2-a]pyrimidin-7-one], the IC50 was found to be 3.5 nM.
